Data from patent US10975029B2, “Crystalline eravacycline bis-hydrochloride” (Sandoz AG, priority 2016, dated 2021).
Where a name gives a salt, the structure may show the parent alone.

How the values were obtained:
Type in all cases: physicochemical
[1] = Comparative Example 1: gravimetric moisture sorption/desorption experiment, 0 to 80% RH; settings: 25° C.; for hysteresis between the sorption and the desorption curve: 0 to 80% RH; for hysteresis between the sorption and the desorption curve / mass increase during the sorption cycle from 0 to 80% RH: dihydrochloride; for mass increase during the sorption cycle from 0 to 80% RH: sorption cycle 0 to 80% RH, reference weight at 0% RH
Description: Crystalline eravacycline bis-hydrochloride of the present invention and amorphous eravacycline bis-hydrochloride were both subjected to a gravimetric moisture sorption/desorption experiment using an SPSx-1μ moisture sorption analyzer (ProUmid, Ulm). The measurement cycles were started at ambient relative humidity (RH) of 20% and the RH was first decreased in 5% steps to 5% RH, in one step to 3% RH in a further step to 0% RH. Then RH was increased from 0% to 80% and decreased from 80 to 0% RH in 5% steps. Finally, the relative humidity was increased to ambient relative humidity of 20% in 3 steps of approximately 7% steps. The time per step was set to a minimum of 2 hours and a maximum of 6 hours. If an equilibrium condition with a constant mass of 0.01% within 1 hour was reached before the maximum time for all examined samples the sequential humidity step was applied before the maximum time of 6 hours. If no equilibrium was achieved the consecutive humidity step was applied after the maximum time of 6 hours. The temperature was (25±0.1)° C.

[2] = Comparative Example 2: chemical stability under accelerated stress conditions, HPLC at 254 nm; settings: dihydrochloride; for Area % (HPLC, 254 nm) after 40° C./75% RH for 19 days / Area % (HPLC, 254 nm) after 40° C./75% RH for 42 days: open stored in glass vials; for Area % (HPLC, 254 nm), initial sample: before stress
Description: [formula] mT=initial mass of eravacycline bis-hydrochloride tested in mg VT=consumption of volumetric solution for titration of eravacycline bis-hydrochloride in mL F=factor of the volumetric solution 36.46=molecular mass of hydrochloride in g/mol 0.1=molarity of the volumetric solution 100=conversion to % High Performance Liquid Chromatography Instrument: Agilent HP 1100 with Chemstation Column: YMC-Pack Pro C18 RS; 150*4.6 mm; 3 microm Solvent: A: 40 mmol amidosulfonic acid in water • B: 40 mmol amidosulfonic acid in water with 75% acetonitrile Gradient: […]
Injection volume: 5 microL Flow: 0.8 mL/min Oven temperature: 40° C. Wavelength: 254 nm
Crystalline eravacycline bis-hydrochloride of the present invention and amorphous eravacycline bis-hydrochloride were subjected to accelerated stress conditions of 40° C. and 75% relative humidity. The samples were open stored in glass vials and analyzed by high performance liquid chromatography at 254 nm using the method as described in the experimental section above.

[3] = Gravimetric moisture sorption isotherm, 0% to 95% RH, with pictures to detect visual changes (deliquescence); settings: for relative humidity at which the solid liquefies (deliquescence): measured at 25.0±0.1° C., dihydrochloride
Description: Moisture sorption isotherms were recorded with an SPSx-1μ moisture sorption analyzer (proUmid, Ulm). The measurement cycle was started at ambient relative humidity (RH) of 25% and first decreased in 5% steps to 5% RH, in one step to 3% RH in a further step to 0% RH. Then RH was increased from 0% to 95% in 5% steps. The time per step was set to a minimum of 2 hours and a maximum of 6 hours. If an equilibrium condition with a constant mass of +0.01% within 1 hour was reached before the maximum time for all examined samples, the sequential humidity step was applied before the maximum time of 6 hours. If no equilibrium was achieved, the consecutive humidity step was applied after the maximum time of 6 hours. The temperature was 25±0.1° C. At the beginning of the GMS experiment, as well as at the end of each RH-step a picture was taken of each sample in order to detect visual changes in the samples. Pictures were taken with a 2046×2046 pixel CMOS image sensor attached to a 35 mm/F 1.4 lens, which was directly connected to the cover plate of moisture sorption analyzer.

[4] = listed as amorphous eravacycline 2HCl
[5] = listed as crystalline eravacycline 2HCl

## CN(C)[C@@H]1C(O)=C(C(N)=O)C(=O)[C@@]2(O)C(O)=C3C(=O)c4c(O)c(NC(=O)CN5CCCC5)cc(F)c4C[C@H]3C[C@@H]12 [amorphous eravacycline bis-hydrochloride, (4S,4aS,5aR,12aS)-4-(Dimethylamino)-7-fluoro-3,10,12,12a-tetrahydroxy-1,11-dioxo-9-[2(-pyrrolidin-1-yl)acetamido]-1,4,4a,5,5a,6,11,12a-octahydrotetracene-2-carboxamide dihydrochloride]
[1]
  hysteresis between the sorption and the desorption curve: significant hysteresis
  mass increase during the sorption cycle from 0 to 80% RH: about 26.1 weight %
[1]; 40% RH, desorption curve, FIG. 7
  water content in the desorption curve at 40% relative humidity: 14.3%
[1]; 40% RH, sorption curve, FIG. 7
  water content in the sorption curve at 40% relative humidity: about 8.9 weight %
[1]; listed as Amorphous eravacycline bis-hydrochloride
  mass increase during the sorption cycle from 0 to 80% RH: about 26.1 weight %
[2]; [4]
  Area % (HPLC, 254 nm) after 40° C./75% RH for 19 days: 31.9 Area %
  Area % (HPLC, 254 nm) after 40° C./75% RH for 42 days: 30.3 Area %
  Area % (HPLC, 254 nm), initial sample: 97.2 Area %
[3]
  relative humidity at which the solid liquefies (deliquescence): 85%

## CN(C)[C@@H]1C(O)=C(C(N)=O)C(=O)[C@@]2(O)C(O)=C3C(=O)c4c(O)c(NC(=O)CN5CCCC5)cc(F)c4C[C@H]3C[C@@H]12 [crystalline eravacycline bis-hydrochloride] [(4S,4aS,5aR,12aS)-4-(Dimethylamino)-7-fluoro-3,10,12,12a-tetrahydroxy-1,11-dioxo-9-[2(-pyrrolidin-1-yl)acetamido]-1,4,4a,5,5a,6,11,12a-octahydrotetracene-2-carboxamide dihydrochloride]
[1]
  hysteresis between the sorption and the desorption curve: no significant hysteresis
[1]; 40% RH, sorption and desorption cycle, FIG. 6
  water content during the sorption and the desorption cycle at 40% relative humidity: about 13 weight %
[2]; [5]
  Area % (HPLC, 254 nm) after 40° C./75% RH for 19 days: 77.1 Area %
  Area % (HPLC, 254 nm) after 40° C./75% RH for 42 days: 73.8 Area %
  Area % (HPLC, 254 nm), initial sample: 95.8 Area %
[3]; 0% RH, gravimetric moisture sorption, 25° C.
  water content at a relative humidity of 0%: about 0 weight %
[3]; 90% RH, gravimetric moisture sorption, 25° C.
  water content at a relative humidity of 90%: about 20.1%
[3]
  relative humidity at which the solid liquefies (deliquescence): 95%
[3]; relative humidity about 0 to 90% at 25.0±0.1° C.
  behaviour when subjected to relative humidity of about 0 to 90%: does not liquefy
